Earlier results in patent publication US10123974B2, “Sustained release formulation of a non-steroidal anti-inflammatory drug” (PACIRA PHARMACEUTICALS, INC., priority 2010, dated 2018).

Details: chronic 100 mg/day systemic dosing

O=C(O)Cc1ccccc1Nc1c(Cl)cccc1Cl [diclofenac]
synovial fluid levels: ≤ 200 ng/mL
